Experimental data from patent US9290544B2, “Methods for making and using molecular switches involving circular permutation” (priority 2004, dated 2016).
Where “and” joins values, the source holds several entries; their conditions need not be identical. Equal values may be shown once.

Key:
[1] = Hydrolysis of ampicillin by RG-200-13 with and without 5 mM maltose; assay type: biochemical; details: pH 7.0, 22° C.
Protocol: (§1) A 6×His tag was added to the C-terminus of RG-200-13 (also termed “RG13” in Examples below) and the fusion was purified as previously described (Guntas and Ostermeier 2004). The protein was purified to approximately 60% purity. The kinetic constants and binding constants were determined from Eadie-Hofstee plots and Eadie plot equivalents, respectively, using a spectrophotometric assay for nitrocefin hydrolysis. Initial rates for nitrocefin hydrolysis were determined from absorbance at 486 nm monitored as a function of time. The enzyme was incubated at the assay temperature in the absence or presence of saccharide for four minutes prior to performing the assay. All assays contained 100 mM sodium phosphate buffer, pH 7.0. The dissociation constant for maltose was determined using change in velocity of nitrocefin hydrolysis as a signal.
(§2) Maltose binding had the largest effect on cephalothin (of the substrates tested), with the velocity of cephalothin hydrolysis being 32-fold higher in the presence of maltose than in its absence.

[2] = Hydrolysis of benzylpenicillin by RG-200-13 with and without 5 mM maltose; assay type: biochemical; details: pH 7.0, 22° C.
Protocol: as §1, §2

[3] = Maltose affinity by intrinsic protein fluorescence; assay type: binding
Protocol: Maltose affinity for RG13 (in presence and absence of 10 mM carbenicillin) and RG13(1329W) (in the absence of substrate) was determined using intrinsic protein fluorescence measured on a Photon Technology QuantaMaster QM-4 spectrofluorometer. Fluorescence spectra were obtained at 25° C. at different concentrations of maltose in 50 mM sodium phosphate buffer, pH 7.0, containing 100 mM sodium chloride. The protein concentration was 50-100 nM. Excitation was at 280 nm. The quenching in fluorescence intensity at 341 nm caused by maltose was used in Eadie-Hofstee equivalent plots to determine Kd using the following equation:
[formula] where ΔF is the change in fluorescence intensity, ΔFmax is the difference in fluorescence between no maltose and saturating amounts of maltose and [L] is the maltose concentration. The fluorescence quenching of RG13(1329W/A96W) upon addition of maltose was insufficient to accurately determine a Kd by this method. The dissociation constant for maltose and RG13(I329W) in the presence of saturating carbenicillin (2 mM) was determined by measuring the initial rate of carbenicillin hydrolysis as a function of maltose concentration. The apparent dissociation constant in the presence of subsaturating concentrations of nitrocefin (25 μM) for all three proteins was determined by measuring the initial rate of nitrocefin hydrolysis as a function of maltose concentration.

[4] = 96-well colorimetric nitrocefin hydrolysis screen of lysates with or without 5 mM maltose; assay type: biochemical; details: 50 μM nitrocefin
Protocol: The naïve library was plated on LB agar plates supplemented with 200 μg/ml ampicillin and 50 mM maltose and incubated at 37° C. overnight. From these plates, 1056 colonies were picked to inoculate 1 ml LB media (supplemented with 50 μg/ml chloramphenicol and 1 mM IPTG) in 96-well format. After incubation overnight at 37′C, each culture was lysed using 0.1 ml Popculture reagent, 40 units of rLysozyme, and 2.5 units of benzonase nuclease. Lysates were centrifuged to pellet the insoluble material and the soluble fractions were assayed in 96-well format for nitrocefin hydrolysis in the presence or absence of 5 mM maltose using a colorimetric assay for nitrocefin hydrolysis (Posey et al. 2002). The assays were carried out at room temperature using the Spectramax-384 Plus microplate reader (Molecular Devices) in the presence of 100 mM sodium phosphate buffer and 50 μM nitrocefin in a 200 μl reaction volume.

[5] = Nitrocefin hydrolysis in soluble fraction of cell lysates with and without 5 mM maltose (screen and confirmation of positives); assay type: biochemical; details: 50 μM nitrocefin
Protocol: Next, 50 μl of PopCulture (Novagen) and 2.5 unit of benzonase nuclease was added to each well and incubated for 15 minutes at room temperature to lyse the cells. The cells debris and any unlysed cells were pelleted by centrifugation and supernatant was recovered. In 96-well format, 60 μl of lysate was assayed for hydrolysis of nitrocefin (50 μM) by monitoring the increase in absorbance at 490 nm in 100 mM sodium phosphate buffer, pH 7.0, both with and without 5 mM maltose. Any lysate in which there was a difference in rate of more than 2-fold (between with and without maltose) was selected for retesting and further investigation.
Library members identified as having more than 200% switching activity in the 96-well plate screen were grown 24-48 hours in 100 ml LB media in 500 ml shaker flasks at 22° C. without IPTG. The cells were pelleted and resuspended in 8 ml assay buffer (100 mM sodium phosphate buffer, pH 7.0) and lysed by French press. The soluble fraction of this lysate was assayed for hydrolysis of nitrocefin (50 μM) at 22° C. as previously described (Guntas and Ostermeier 2004) both with and without 5 mM maltose. Initial rates were determined from absorbance at 486 nm monitored as a function of time. The enzyme was incubated at the assay temperature in the absence or presence of 5 mM maltose for four minutes prior to performing the assay. All assays contained 100 mM sodium phosphate buffer, pH 7.0. Library members for which there was a difference in the initial rate of more than about 2-fold were sequenced (Table 4). Switches RG-5-169 and RG-200-13 were also assayed in the presence of 5 mM sucrose or 5 mM glucose.

[6] = Affinity of switches for maltose (method not given); assay type: binding
Source text: Exemplary switches were created by the method having different affinities for maltose.

[7] = Hydrolysis of oxacillin by RG-200-13 with and without 5 mM maltose; assay type: biochemical; details: substrate oxacillin 1 mM; pH 7.0, 22° C.
Protocol: as §1, §2

## RG13: MBP-BLA fusion switch MBP[1-316]-BLA[227-286]-GSGGG-BLA[24-226]-S-MBP[319-370]; SEQ ID NO: 61
[1]; substrate ampicillin 100 μM
  Approximate fold increase in velocity of ampicillin hydrolysis in the presence of 5 mM maltose: ~26 fold
[1]; substrate ampicillin 500 μM
  Approximate fold increase in velocity of ampicillin hydrolysis in the presence of 5 mM maltose: ~10 fold
[2]; substrate benzylpenicillin 100 μM
  Approximate fold increase in velocity of benzylpenicillin hydrolysis in the presence of 5 mM maltose: ~17 fold
[2]; substrate benzylpenicillin 500 μM
  Approximate fold increase in velocity of benzylpenicillin hydrolysis in the presence of 5 mM maltose: ~7 fold
[3]; 10 mM carbenicillin, 25° C., read-out: Kd maltose, Saturating Carbenicillin, IPF
  Kd: 1.3 ± 0.5 µM
[3]; intrinsic protein fluorescence, 100 mM NaCl, 50 mM NaPO4, pH 7.0, 25° C., read-out: Kd maltose, No Substrate
  Kd: 5.5 µM and 5 to 6 µM
[3]; text of Example 3, read-out: Dissociation constant for maltose in the presence of saturating amounts of carbenicillin
  Kd: ~1 µM
[4]
  Increase of initial velocity of nitrocefin hydrolysis in the presence of maltose: 17 fold
[5]; 22° C., lysate soluble fraction
  Effect of 5 mM sucrose or 5 mM glucose on velocity of nitrocefin hydrolysis: Neither sugar affected the velocity of nitrocefin hydrolysis
[5]; 5 mM maltose, 100 mM sodium phosphate buffer, pH 7.0
  Switching effect: percent change in velocity of nitrocefin hydrolysis in the presence of 5 mM maltose: +1650%
[6]
  Kd: 1 to 5 µM
[7]
  Approximate fold increase in velocity of oxacillin hydrolysis in the presence of 5 mM maltose: ~5 fold
